Laboratory results: US9951063B2, “8-(piperazin-1-yl)-1,2,3,4-tetrahydro-isoquinoline derivatives” (IDORSIA PHARMACEUTICALS LTD, priority 2014, dated 2018)

The molecules below were run against human CXCR3A (Homo sapiens (Human), UniProt P49682) (assay: FLIPR assay (inhibition of CXCL10-induced calcium signal)). Conditions: engineered CHO-K1 cells expressing human CXCR3A coupled to Galpha(16); Fluo-4-AM; CXCL10 agonist 20 nM; mean values where determined several times.
Type: cell-based
Outline: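 CHO-K1 cells expressing human CXCR3A coupled to Gα16 were loaded with Fluo-4-AM for 1 h in HBSS/20 mM Hepes pH 7.4 with probenecid. Compound was added, then CXCL10 (20 nM as dispensed). Baseline-subtracted peak fluorescence gave inhibition curves and IC50, averaged over repeats.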

human CXCR3A, sequence (P49682 whole entry): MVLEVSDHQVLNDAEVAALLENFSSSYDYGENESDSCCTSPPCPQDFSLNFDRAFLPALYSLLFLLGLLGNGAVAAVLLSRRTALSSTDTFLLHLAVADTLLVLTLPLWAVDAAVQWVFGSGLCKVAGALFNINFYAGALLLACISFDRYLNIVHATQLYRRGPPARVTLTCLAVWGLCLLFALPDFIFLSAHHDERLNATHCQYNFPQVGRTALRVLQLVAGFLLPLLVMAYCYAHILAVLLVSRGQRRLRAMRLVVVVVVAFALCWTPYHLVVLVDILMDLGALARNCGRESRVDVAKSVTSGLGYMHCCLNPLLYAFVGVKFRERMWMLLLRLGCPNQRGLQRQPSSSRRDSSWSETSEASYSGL

Going from `C[C@@H]1CN(c2cccc3c2CN(c2ccc(F)cc2)CC3)CCN1C(=O)Cn1cnc2cccnc21` [Example 99, 1-{(R)-4-[2-(4-Fluoro-phenyl)-1,2,3,4-tetrahydro-isoquinolin-8-yl]-2-methyl-piperazin-1-yl}-2-imidazo[4,5-b]pyridin-3-yl-ethanone] to `COc1ccc(N2CCc3cccc(N4CCN(C(=O)Cn5cnc6cccnc65)[C@H](C)C4)c3C2)cc1` [Example 105, 2-Imidazo[4,5-b]pyridin-3-yl-1-{(R)-4-[2-(4-methoxy-phenyl)-1,2,3,4-tetrahydro-isoquinolin-8-yl]-2-methyl-piperazin-1-yl}-ethanone], the IC50 rises from 8.3 nM to 20.3 nM (2.4-fold).

First: C[C@@H]1CN(c2cccc3c2CN(c2ccc(C(F)(F)F)nc2)CC3)CCN1C(=O)Cn1cnc2cccnc21 [Example 100, 2-Imidazo[4,5-b]pyridin-3-yl-1-{(R)-2-methyl-4-[2-(6-trifluoromethyl-pyridin-3-yl)-1,2,3,4-tetrahydro-isoquinolin-8-yl]-piperazin-1-yl}-ethanone]
Second: C[C@@H]1CN(c2cccc3c2CN(c2ccc(C(F)(F)F)cn2)CC3)CCN1C(=O)Cn1cnc2cccnc21 [Example 103, 2-Imidazo[4,5-b]pyridin-3-yl-1-{(R)-2-methyl-4-[2-(5-trifluoromethyl-pyridin-2-yl)-1,2,3,4-tetrahydro-isoquinolin-8-yl]-piperazin-1-yl}-ethanone]
The IC50 of the first is 17-fold lower: 1.25 nM for the first, 20.7 nM for the second.

Going from `C[C@@H]1CN(c2cccc3c2CN(c2ccccc2)CC3)CCN1C(=O)Cn1cnc2cccnc21` [Example 101, 2-Imidazo[4,5-b]pyridin-3-yl-1-[(R)-2-methyl-4-(2-phenyl-1,2,3,4-tetrahydro-isoquinolin-8-yl)-piperazin-1-yl]-ethanone] to `C[C@@H]1CN(c2cccc3c2CN(c2ccccn2)CC3)CCN1C(=O)Cn1cnc2cccnc21` [Example 104, 2-Imidazo[4,5-b]pyridin-3-yl-1-[(R)-2-methyl-4-(2-pyridin-2-yl-1,2,3,4-tetrahydro-isoquinolin-8-yl)-piperazin-1-yl]-ethanone], the IC50 falls from 14.7 nM to 9.71 nM (1.5-fold).

`C[C@@H]1CN(c2cccc3c2CN(c2ncccn2)CC3)CCN1C(=O)Cn1cnc2cccnc21` [Example 102, 2-Imidazo[4,5-b]pyridin-3-yl-1-[(R)-2-methyl-4-(2-pyrimidin-2-yl-1,2,3,4-tetrahydro-isoquinolin-8-yl)-piperazin-1-yl]-ethanone] and `Cc1cnc(N2CCc3cccc(N4CCN(C(=O)Cn5cnc6cccnc65)[C@H](C)C4)c3C2)nc1` [Example 108, 2-Imidazo[4,5-b]pyridin-3-yl-1-{(R)-2-methyl-4-[2-(5-methyl-pyrimidin-2-yl)-1,2,3,4-tetrahydro-isoquinolin-8-yl]-piperazin-1-yl}-ethanone] are within 1.5-fold of each other in IC50: 29.1 nM for the first, 32.6 nM for the second.

Compared with `C[C@@H]1CN(c2cccc3c2CN(c2cncnc2)CC3)CCN1C(=O)Cn1cnc2cccnc21` [Example 106, 2-Imidazo[4,5-b]pyridin-3-yl-1-[(R)-2-methyl-4-(2-pyrimidin-5-yl-1,2,3,4-tetrahydro-isoquinolin-8-yl)-piperazin-1-yl]-ethanone], `Cc1ncc(N2CCc3cccc(N4CCN(C(=O)Cn5cnc6cccnc65)[C@H](C)C4)c3C2)cn1` [Example 109, 2-Imidazo[4,5-b]pyridin-3-yl-1-{(R)-2-methyl-4-[2-(2-methyl-pyrimidin-5-yl)-1,2,3,4-tetrahydro-isoquinolin-8-yl]-piperazin-1-yl}-ethanone] is 2.3-fold higher in IC50: 5.46 nM for the first, 12.5 nM for the second. The first is the more potent here.

Going from `C[C@@H]1CN(c2cccc3c2CN(c2cnc(C(F)(F)F)nc2)CC3)CCN1C(=O)Cn1cnc2cccnc21` [Example 107, 2-Imidazo[4,5-b]pyridin-3-yl-1-{(R)-2-methyl-4-[2-(2-trifluoromethyl-pyrimidin-5-yl)-1,2,3,4-tetrahydro-isoquinolin-8-yl]-piperazin-1-yl}-ethanone] to `C[C@@H]1CN(c2cccc3c2CN(c2cnc(OCC(F)(F)F)nc2)CC3)CCN1C(=O)Cn1cnc2cccnc21` [Example 112, 2-Imidazo[4,5-b]pyridin-3-yl-1-((R)-2-methyl-4-{2-[2-(2,2,2-trifluoro-ethoxy)-pyrimidin-5-yl]-1,2,3,4-tetrahydro-isoquinolin-8-yl}-piperazin-1-yl)-ethanone], the IC50 rises from 1.74 nM to 2.98 nM (1.7-fold).

Compared with `CCCc1ncc(N2CCc3cccc(N4CCN(C(=O)Cn5cnc6cccnc65)[C@H](C)C4)c3C2)cn1` [Example 110, 2-Imidazo[4,5-b]pyridin-3-yl-1-{(R)-2-methyl-4-[2-(2-propyl-pyrimidin-5-yl)-1,2,3,4-tetrahydro-isoquinolin-8-yl]-piperazin-1-yl}-ethanone], `COc1ncc(N2CCc3cccc(N4CCN(C(=O)Cn5cnc6cccnc65)[C@H](C)C4)c3C2)cn1` [Example 118, 2-Imidazo[4,5-b]pyridin-3-yl-1-{(R)-4-[2-(2-methoxy-pyrimidin-5-yl)-1,2,3,4-tetrahydro-isoquinolin-8-yl]-2-methyl-piperazin-1-yl}-ethanone] is 7.6-fold higher in IC50: 0.85 nM for the first, 6.49 nM for the second.

Going from `CC(C)Oc1ncc(N2CCc3cccc(N4CCN(C(=O)Cn5cnc6cccnc65)[C@H](C)C4)c3C2)cn1` [Example 111, 2-Imidazo[4,5-b]pyridin-3-yl-1-{(R)-4-[2-(2-isopropoxy-pyrimidin-5-yl)-1,2,3,4-tetrahydro-isoquinolin-8-yl]-2-methyl-piperazin-1-yl}-ethanone] to `C[C@@H]1CN(c2cccc3c2CN(c2nccs2)CC3)CCN1C(=O)Cn1cnc2cccnc21` [Example 113, 2-Imidazo[4,5-b]pyridin-3-yl-1-[(R)-2-methyl-4-(2-thiazol-2-yl-1,2,3,4-tetrahydro-isoquinolin-8-yl)-piperazin-1-yl]-ethanone], the IC50 rises from 4.83 nM to 12.2 nM (2.5-fold).

Compared with `Cc1csc(N2CCc3cccc(N4CCN(C(=O)Cn5cnc6cccnc65)[C@H](C)C4)c3C2)n1` [Example 114, 2-Imidazo[4,5-b]pyridin-3-yl-1-{(R)-2-methyl-4-[2-(4-methyl-thiazol-2-yl)-1,2,3,4-tetrahydro-isoquinolin-8-yl]-piperazin-1-yl}-ethanone], `C[C@@H]1CN(c2cccc3c2CN(c2nc(C#N)cs2)CC3)CCN1C(=O)Cn1cnc2cccnc21` [Example 117, 2-{8-[(R)-4-(2-Imidazo[4,5-b]pyridin-3-yl-acetyl)-3-methyl-piperazin-1-yl]-3,4-dihydro-1H-isoquinolin-2-yl}-thiazole-4-carbonitrile] is 2.6-fold lower in IC50: 9.53 nM for the first, 3.7 nM for the second.

`C[C@@H]1CN(c2cccc3c2CN(c2ncc(-c4ccccc4)s2)CC3)CCN1C(=O)Cn1cnc2cccnc21` [Example 115, 2-Imidazo[4,5-b]pyridin-3-yl-1-{(R)-2-methyl-4-[2-(5-phenyl-thiazol-2-yl)-1,2,3,4-tetrahydro-isoquinolin-8-yl]-piperazin-1-yl}-ethanone] and `Cc1nc(N2CCc3cccc(N4CCN(C(=O)Cn5cnc6cccnc65)[C@H](C)C4)c3C2)sc1C` [Example 116, 1-{(R)-4-[2-(4,5-Dimethyl-thiazol-2-yl)-1,2,3,4-tetrahydro-isoquinolin-8-yl]-2-methyl-piperazin-1-yl}-2-imidazo[4,5-b]pyridin-3-yl-ethanone] are within 1.5-fold of each other in IC50: 13.3 nM for the first, 15.1 nM for the second.

`COc1ccc(N2CCc3cccc(N4CCN(C(=O)Cn5cnc6cccnc65)[C@H](C)C4)c3C2)nn1` [Example 119, 2-Imidazo[4,5-b]pyridin-3-yl-1-{(R)-4-[2-(6-methoxy-pyridazin-3-yl)-1,2,3,4-tetrahydro-isoquinolin-8-yl]-2-methyl-piperazin-1-yl}-ethanone] showed an IC50 of 10.9 nM.
